14 compounds from patent publication US10689367B2, “Triazole pyridyl compounds as agonists of the APJ receptor” (AMGEN INC., priority 2016, dated 2020) can be followed below.

The structures appear in SMILES notation.

For this assay, the target named is human APJ receptor (Homo sapiens (Human), UniProt P35414). The experiment in a line: [35S]GTPγS binding assay on membranes from CHO cells stably expressing human APJ receptor. Type of assay: biochemical. As to conditions: membranes of CHO cells stably expressing human APJ receptor, read-out: Activity hAPJ SPA EC50 IP. The method, boiled down: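 [35S]GTPγS binding measured on membranes from CHO cells stably expressing FLAG-tagged human APJ, with GDP, MgCl2 and NaCl levels optimized beforehand. Incubation 90 min at RT, imager read-out; EC50 from non-linear regression, averaged over several independent experiments.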
Sequence of human APJ receptor (P35414 whole entry): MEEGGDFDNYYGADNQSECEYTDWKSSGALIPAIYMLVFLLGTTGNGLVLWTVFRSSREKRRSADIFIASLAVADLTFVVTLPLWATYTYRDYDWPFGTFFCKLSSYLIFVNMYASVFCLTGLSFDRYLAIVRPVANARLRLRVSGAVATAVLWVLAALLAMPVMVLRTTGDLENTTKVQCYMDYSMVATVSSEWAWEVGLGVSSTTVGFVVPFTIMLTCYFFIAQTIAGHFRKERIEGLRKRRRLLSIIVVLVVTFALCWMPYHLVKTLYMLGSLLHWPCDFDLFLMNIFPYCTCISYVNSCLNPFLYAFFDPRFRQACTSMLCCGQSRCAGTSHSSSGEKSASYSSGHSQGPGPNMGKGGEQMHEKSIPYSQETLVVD
In general terms: GTPγS is a poorly hydrolysed GTP analogue; its binding reports G protein activation.
One may read the EC50 as the concentration needed to bring the measured effect to its halfway point. For `CC[C@@H](c1c(C)noc1C)n1c(NS(=O)(=O)[C@@H](C)[C@H](C)c2ncc(Cl)cn2)nnc1-c1cccc(OC)n1` (single isomer, unassigned) [Example 225.0, (2S,3R)-3-(5-chloro-2-pyrimidinyl)-N-(4-((1R)-1-(3,5-dimethyl-1,2-oxazol-4-yl)propyl)-5-(6-methoxy-2-pyridinyl)-4H-1,2,4-triazol-3-yl)-2-butanesulfonamide or (2S,3R)-3-(5-chloro-2-pyrimidinyl)-N-(4-((1S)-1-(3,5-dimethyl-1,2-oxazol-4-yl)propyl)-5-(6-methoxy-2-pyridinyl)-4H-1,2,4-triazol-3-yl)-2-butanesulfonamide], the EC50 was found to be 5.1 nM.

As to `COc1cccc(-c2nnc(NS(=O)(=O)[C@@H](C)[C@H](C)c3ncc(Cl)cn3)n2[C@H](c2conc2C)C2CC2)n1` (single isomer, unassigned) [Example 229.0, (2S,3R)-3-(5-chloro-2-pyrimidinyl)-N-(4-((S)-cyclopropyl(3-methyl-1,2-oxazol-4-yl)methyl)-5-(6-methoxy-2-pyridinyl)-4H-1,2,4-triazol-3-yl)-2-butanesulfonamide or (2S,3R)-3-(5-chloro-2-pyrimidinyl)-N-(4-((R)-cyclopropyl(3-methyl-1,2-oxazol-4-yl)methyl)-5-(6-methoxy-2-pyridinyl)-4H-1,2,4-triazol-3-yl)-2-butanesulfonamide], the EC50 turned out to be 1.2 nM.

Take `COc1cccc(-c2nnc(NS(=O)(=O)[C@@H](C)[C@@H](OC(C)C)c3ncc(C)cn3)n2[C@H](c2conc2C)C2CC2)n1` (single isomer, unassigned) [Example 230.0, (1S,2S)-N-(4-((S)-cyclopropyl(3-methyl-1,2-oxazol-4-yl)methyl)-5-(6-methoxy-2-pyridinyl)-4H-1,2,4-triazol-3-yl)-1-(5-methyl-2-pyrimidinyl)-1-(2-propanyloxy)-2-propanesulfonamide or (1S,2S)-N-(4-((R)-cyclopropyl(3-methyl-1,2-oxazol-4-yl)methyl)-5-(6-methoxy-2-pyridinyl)-4H-1,2,4-triazol-3-yl)-1-(5-methyl-2-pyrimidinyl)-1-(2-propanyloxy)-2-propanesulfonamide]: the EC50 is 0.5 nM.

As to `CC[C@@H](c1conc1C)n1c(NS(=O)(=O)[C@@H](C)[C@H](C)c2ncc(Cl)cn2)nnc1-c1cccc(OC)n1` (single isomer, unassigned) [Example 231.0, (2S,3R)-3-(5-chloro-2-pyrimidinyl)-N-(5-(6-methoxy-2-pyridinyl)-4-((1S)-1-(3-methyl-1,2-oxazol-4-yl)propyl)-4H-1,2,4-triazol-3-yl)-2-butanesulfonamide or (2S,3R)-3-(5-chloro-2-pyrimidinyl)-N-(5-(6-methoxy-2-pyridinyl)-4-((1R)-1-(3-methyl-1,2-oxazol-4-yl)propyl)-4H-1,2,4-triazol-3-yl)-2-butanesulfonamide], the concentration for a half-maximal effect (EC50) amounted to 21 nM.

With `CC[C@@H](c1conc1C)n1c(NS(=O)(=O)[C@@H](C)[C@H](C)c2ncc(Cl)cn2)nnc1-c1cccc(OC)n1` (single isomer, unassigned) [Example 232.0, (2S,3R)-3-(5-chloro-2-pyrimidinyl)-N-(5-(6-methoxy-2-pyridinyl)-4-((1R)-1-(3-methyl-1,2-oxazol-4-yl)propyl)-4H-1,2,4-triazol-3-yl)-2-butanesulfonamide or (2S,3R)-3-(5-chloro-2-pyrimidinyl)-N-(5-(6-methoxy-2-pyridinyl)-4-((1S)-1-(3-methyl-1,2-oxazol-4-yl)propyl)-4H-1,2,4-triazol-3-yl)-2-butanesulfonamide], the EC50 was determined as 1.5 nM.

Take `COc1cccc(-c2nnc(NS(=O)(=O)[C@@H](C)[C@@H](OC(C)C)c3ncc(C)cn3)n2[C@@H](C)c2ncn(C)n2)n1` (single isomer, unassigned) [Example 233.0, (1S,2S)-N-(5-(6-methoxy-2-pyridinyl)-4-((1S)-1-(1-methyl-1H-1,2,4-triazol-3-yl)ethyl)-4H-1,2,4-triazol-3-yl)-1-(5-methyl-2-pyrimidinyl)-1-(2-propanyloxy)-2-propanesulfonamide or (1S,2S)-N-(5-(6-methoxy-2-pyridinyl)-4-((1R)-1-(1-methyl-1H-1,2,4-triazol-3-yl)ethyl)-4H-1,2,4-triazol-3-yl)-1-(5-methyl-2-pyrimidinyl)-1-(2-propanyloxy)-2-propanesulfonamide]: the concentration giving a half-maximal response (EC50) worked out at 10 nM.

On to `COc1cccc(-c2nnc(NS(=O)(=O)[C@@H](C)[C@@H](OC(C)C)c3ncc(C)cn3)n2[C@@H](C)c2ncn(C)n2)n1` (single isomer, unassigned) [Example 234.0, (1S,2S)-N-(5-(6-methoxy-2-pyridinyl)-4-((1R)-1-(1-methyl-1H-1,2,4-triazol-3-yl)ethyl)-4H-1,2,4-triazol-3-yl)-1-(5-methyl-2-pyrimidinyl)-1-(2-propanyloxy)-2-propanesulfonamide or (1S,2S)-N-(5-(6-methoxy-2-pyridinyl)-4-((1S)-1-(1-methyl-1H-1,2,4-triazol-3-yl)ethyl)-4H-1,2,4-triazol-3-yl)-1-(5-methyl-2-pyrimidinyl)-1-(2-propanyloxy)-2-propanesulfonamide], for which the EC50 is 84 nM.

Turning to `COc1cccc(-c2nnc(NS(=O)(=O)[C@@H](C)[C@H](OC)c3ncc(Cl)cn3)n2[C@@H](C)c2ncn(C)n2)n1` (single isomer, unassigned) [Example 235.0, (1R,2S)-1-(5-chloro-2-pyrimidinyl)-1-methoxy-N-(5-(6-methoxy-2-pyridinyl)-4-((1S)-1-(1-methyl-1H-1,2,4-triazol-3-yl)ethyl)-4H-1,2,4-triazol-3-yl)-2-propanesulfonamide or (1R,2S)-1-(5-chloro-2-pyrimidinyl)-1-methoxy-N-(5-(6-methoxy-2-pyridinyl)-4-((1R)-1-(1-methyl-1H-1,2,4-triazol-3-yl)ethyl)-4H-1,2,4-triazol-3-yl)-2-propanesulfonamide], the EC50 stood at 100 nM.

On to `COc1cccc(-c2nnc(NS(=O)(=O)[C@@H](C)[C@H](OC)c3ncc(Cl)cn3)n2[C@@H](C)c2ncn(C)n2)n1` (single isomer, unassigned) [Example 236.0, (1R,2S)-1-(5-chloro-2-pyrimidinyl)-1-methoxy-N-(5-(6-methoxy-2-pyridinyl)-4-((1R)-1-(1-methyl-1H-1,2,4-triazol-3-yl)ethyl)-4H-1,2,4-triazol-3-yl)-2-propanesulfonamide or (1R,2S)-1-(5-chloro-2-pyrimidinyl)-1-methoxy-N-(5-(6-methoxy-2-pyridinyl)-4-((1S)-1-(1-methyl-1H-1,2,4-triazol-3-yl)ethyl)-4H-1,2,4-triazol-3-yl)-2-propanesulfonamide], for which the EC50 was determined as 7.2 nM.

For `COc1cccc(-c2nnc(NS(=O)(=O)[C@@H](C)[C@H](C)c3ncc(Cl)cn3)n2[C@@H](C)c2ncn(C)n2)n1` (single isomer, unassigned) [Example 237.0, (2S,3R)-3-(5-chloro-2-pyrimidinyl)-N-(5-(6-methoxy-2-pyridinyl)-4-((1S)-1-(1-methyl-1H-1,2,4-triazol-3-yl)ethyl)-4H-1,2,4-triazol-3-yl)-2-butanesulfonamide or (2S,3R)-3-(5-chloro-2-pyrimidinyl)-N-(5-(6-methoxy-2-pyridinyl)-4-((1R)-1-(1-methyl-1H-1,2,4-triazol-3-yl)ethyl)-4H-1,2,4-triazol-3-yl)-2-butanesulfonamide], the EC50 was found to be 130 nM.

With `COc1cccc(-c2nnc(NS(=O)(=O)[C@@H](C)[C@H](C)c3ncc(Cl)cn3)n2[C@@H](C)c2ncn(C)n2)n1` (single isomer, unassigned) [Example 238.0, (2S,3R)-3-(5-chloro-2-pyrimidinyl)-N-(5-(6-methoxy-2-pyridinyl)-4-((1R)-1-(1-methyl-1H-1,2,4-triazol-3-yl)ethyl)-4H-1,2,4-triazol-3-yl)-2-butanesulfonamide or (2S,3R)-3-(5-chloro-2-pyrimidinyl)-N-(5-(6-methoxy-2-pyridinyl)-4-((1S)-1-(1-methyl-1H-1,2,4-triazol-3-yl)ethyl)-4H-1,2,4-triazol-3-yl)-2-butanesulfonamide], the EC50 was 6.2 nM.

Consider `COc1cccc(-c2nnc(NS(=O)(=O)[C@@H](C)[C@@H](OC(C)C)c3ncc(C)cn3)n2[C@@H](C)c2nc(C)no2)n1` (single isomer, unassigned) [Example 239.0], for which the EC50 stood at 2.6 nM.

On to `COc1cccc(-c2nnc(NS(=O)(=O)[C@@H](C)[C@@H](OC(C)C)c3ncc(C)cn3)n2[C@@H](C)c2nc(C)no2)n1` (single isomer, unassigned) [Example 240.0, (1S,2S)-N-(5-(6-methoxy-2-pyridinyl)-4-((1S)-1-(3-methyl-1,2,4-oxadiazol-5-yl)ethyl)-4H-1,2,4-triazol-3-yl)-1-(5-methyl-2-pyrimidinyl)-1-(2-propanyloxy)-2-propanesulfonamide or (1S,2S)-N-(5-(6-methoxy-2-pyridinyl)-4-((1R)-1-(3-methyl-1,2,4-oxadiazol-5-yl)ethyl)-4H-1,2,4-triazol-3-yl)-1-(5-methyl-2-pyrimidinyl)-1-(2-propanyloxy)-2-propanesulfonamide], for which the EC50 amounted to 2 nM.

Take `COc1cccc(-c2nnc(NS(=O)(=O)[C@@H](C)[C@@H](OC(C)C)c3ncc(C)cn3)n2[C@@H](C)c2ncc(C)o2)n1` (single isomer, unassigned) [Example 241.0, (1S,2S)-N-(5-(6-methoxy-2-pyridinyl)-4-((1S)-1-(5-methyl-1,3-oxazol-2-yl)ethyl)-4H-1,2,4-triazol-3-yl)-1-(5-methyl-2-pyrimidinyl)-1-(2-propanyloxy)-2-propanesulfonamide or (1S,2S)-N-(5-(6-methoxy-2-pyridinyl)-4-((1R)-1-(5-methyl-1,3-oxazol-2-yl)ethyl)-4H-1,2,4-triazol-3-yl)-1-(5-methyl-2-pyrimidinyl)-1-(2-propanyloxy)-2-propanesulfonamide]: the EC50 worked out at 7.4 nM.
